Test results reported in publication PMC11790763, “A Peptide Motif Covering Splice Site B in Neuroligin-1 Binds to Aβ and Acts as a Neprilysin Inhibitor” (Molecular Neurobiology, 2024).
Where a SMILES comes first, the peptide text is derived from it. Bridges are numbered along the chain shown (N, C = ends). Roman numbers before positions name the chains, in order. Where no end group is shown, it is not given here.

Assays:
Aβ1-42 = target: T1, Aβ1-42 (Homo sapiens, UniProt P05067); assay: Aβ1-42 aggregation assay (thioflavin T fluorescence); settings: 75 μM Aβ1-42 + 10 μM peptide, 37 °C, 8 days, 50 mM Tris pH 7.4, ThT 5 μM, triplicates; slopes compared with Aβ alone
T1 construct: Aβ1-42, at a final concentration of 75 μM (pH 7.4); purchased Bachem AG (Bubendorf, Switzerland) or Schafer-N; host or cells: synthetic peptide
Description: Aβ1-42 was dissolved in sterile deionized water to a final concentration of 1 mM. Then, the peptide was subjected to a basic shock by adding 2 M NaOH to pH 12 followed by neutralization with 1 M HCl. Aβ1-42, at a final concentration of 75 μM (pH 7.4) either alone or in combination with NL1 (1 μM), neurolide (10 μM), or NLp7 (10 μM), was loaded in triplicates on 96-well plate. Immediately after mixing the samples, thioflavin T (5 μM, ThT; Sigma-Aldrich), dissolved in the aggregation buffer (50 mM Tris, pH 7.4), was added to wells and plate was incubated at 37 °C for 8 days. The formation of beta-amyloid aggregates was monitored first for 210 min and then every 24 h by recording changes in ThT fluorescence at excitation/emission (Ex/Em) = 440/482 nm.

brain-derived NEP = target: T2, brain-derived NEP (Mus musculus, UniProt Q61391); assay: Neprilysin activity in NEP-enriched brain membrane fraction of WT mice; format: biochemical, mouse (C57Bl/6j); settings: 40 μg protein, Thiorphan 100 nM
T2 construct: Clear supernatants were used as membrane-extracted fractions; from tissue; host or cells: adult mouse brain without cerebellum, Triton X-100-extracted membrane fraction
T2 sequence (Q61391 1-750): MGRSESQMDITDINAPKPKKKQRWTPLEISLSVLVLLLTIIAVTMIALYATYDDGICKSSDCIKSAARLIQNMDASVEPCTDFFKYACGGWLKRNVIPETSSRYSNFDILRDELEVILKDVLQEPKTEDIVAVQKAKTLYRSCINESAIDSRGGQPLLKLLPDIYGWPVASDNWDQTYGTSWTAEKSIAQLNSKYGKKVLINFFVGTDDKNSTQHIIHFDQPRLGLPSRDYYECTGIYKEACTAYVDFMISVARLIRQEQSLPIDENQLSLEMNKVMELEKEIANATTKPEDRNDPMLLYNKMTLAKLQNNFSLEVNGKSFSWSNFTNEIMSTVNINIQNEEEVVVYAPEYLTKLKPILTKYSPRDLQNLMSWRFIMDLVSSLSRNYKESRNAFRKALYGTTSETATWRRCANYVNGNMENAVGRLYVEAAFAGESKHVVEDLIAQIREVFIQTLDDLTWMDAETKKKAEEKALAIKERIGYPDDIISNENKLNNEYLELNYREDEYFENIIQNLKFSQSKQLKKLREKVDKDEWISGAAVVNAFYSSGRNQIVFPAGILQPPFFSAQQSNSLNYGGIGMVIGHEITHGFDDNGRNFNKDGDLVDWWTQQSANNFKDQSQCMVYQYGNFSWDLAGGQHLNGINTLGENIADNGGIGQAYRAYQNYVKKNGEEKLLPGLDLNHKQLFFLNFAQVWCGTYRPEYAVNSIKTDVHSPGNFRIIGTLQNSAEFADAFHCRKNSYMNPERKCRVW
Description: To measure NEP activity in brain tissue, whole brains without cerebellum were dissected from adult mice (C57Bl/6j or 5XFAD) and homogenized with a Teflon-glass homogenizer in five volumes (w/v) of ice-cold lysis buffer containing PBS (pH 7.4), 0.25 M sucrose and protease inhibitor cocktail (Complete™, EDTA-free, Roche Diagnostics, Indianapolis, IN). The homogenates were centrifuged at 9000 × g for 15 min at 4 °C. The supernatants were further centrifuged at 20,000 × g at 4 °C for 20 min. The resulting pellets were solubilized in resuspension buffer containing PBS (pH 7.4) and 1% Triton X-100 for 1 h on ice and again centrifuged at 20,000 × g at 4 °C for 20 min. Clear supernatants were used as membrane-extracted fractions. Protein concentrations of Triton-extracted membrane fractions were determined using the Pierce BCA Protein Assay kit (Thermo Fisher Scientific). The standard assay mixture consisted of membrane fraction containing 40 μg total protein diluted in 40 μl of dilution buffer, 10 μl of testing compound (NL1, neurolide or vehicle), and 50 μl of NEP substrate (5-FAM/QXL; Anaspec) in a total volume of 100 μl. The reaction was initiated by adding substrate to the assay mixture. […] Positive and negative controls were set up according to the manufacturer’s protocol (Anaspec). Fluorescence was measured at Ex/Em = 485/535 nm every 20 min for 2 h. The data were expressed as percentage of relative activity of neprilysin.

Aβ1-40 = target: T3, Aβ1-40 (Homo sapiens, UniProt P05067); assay: Competitive ELISA, binding to biotinylated Aβ1-40; settings: Table 1, title prints Aβ1-42, text and method Aβ1-40, IC50 interpreted as KD
T3 construct: biotinylated Aβ1-40, at final concentration 400 nM; purchased Bachem AG (Bubendorf, Switzerland) or Schafer-N; host or cells: synthetic peptide
Description: NL1 and NL1-derived peptide binding to Aβ was measured by competitive ELISA using the shorter Aβ1-40 peptide with a slower polymerization constant, optimized for this binding assay. Recombinant NL1 (3.125 nM) was immobilized on a poly-sorb 96-well plate (NUNC, Roskilde, Denmark) using sodium bicarbonate buffer (pH 9.6), and left overnight at 4 °C, followed by washing with PBST buffer (PBS supplemented with 0.1% [vol/vol] Tween-20, pH 7.4). In separate tubes, biotinylated Aβ1-40, at final concentration 400 nM, was premixed with serially diluted NL1 or NL1-derived peptides for 30 min. A reversed version of Aβ (Aβ40-1) was used as the respective negative control (Supplementary Fig. 1). After preincubation, the samples were centrifuged at 20,000 × g for 10 min at 4 °C and 100 μl of the mixtures were transferred in triplicates onto the precoated ELISA plate. Plates were incubated at room temperature for 4 h, followed by washing and incubation with streptavidin-HRP conjugate (1:1000, 1 h; Dako, Glostrup, Denmark). The signal was developed with TMB ONE (KEM-EN-TEC, Denmark), and the reaction was terminated with 0.2 M H2SO4. Absorbance was measured at 450 nm on a Wallac VICTOR2 1420 Multilabel Counter (PerkinElmer, Hvidovre, Denmark). KD values were derived by sigmoidal dose–response (variable slope) fit of NL1 and neurolide dose–response curves after log transformation according to GraphPad Prism (version 6, GraphPad, San Diego, CA, USA). Obtained inhibitory concentration IC50 value was interpreted as KD value.

[1] = target: T4, recombinant neprilysin (NEP) (Homo sapiens, UniProt P08473); assay: Neprilysin activity assay with recombinant enzyme (SensoLyte 520); format: biochemical; settings: peptide 5 μM, equimolar to neurolide; 5-FAM/QXL substrate, 2 h; four to five independent experiments
T4 construct: purchased Anaspec, Fremont, California, USA (SensoLyte 520 Neprilysin Activity Assay Kit)
Description: NEP activity was measured using the SensoLyte 520 Neprilysin Activity Assay Kit *Fluorimetric* (Anaspec, Fremont, California, USA) following the protocol provided by the manufacturer. Briefly, Aβ1-42 was dissolved in anhydrous DMSO to a stock concentration of 5 mM, followed by dilutions in assay buffer (100 μM, 50 μM, and 5 μM). Both NL1 (3 μM, 1 μM, 0.3 μM, 0.1 μM) and neurolide (100, 10, 5, and 1 μM) were dissolved in assay buffer. Randomly selected two additional NL1-derived peptides, NLp4, and NLp7 (5 μM, Table 1), were included in the analysis. The NEP solution (40 μl) was mixed with 10 μl of either NL1 or peptides and supplemented with 50 μl of NEP substrate (5-FAM/QXL), and the final mixture was incubated in black optical-bottom 96-well plate (Nunc, Rochester, New York, USA). In co-stimulation experiments, Aβ1-42, prepared as described above, was added to the solution in final concentrations either 0.5 μM or 5 μM. The fluorescence signal was recorded at Ex/Em = 485/535 nm every 20 min for 2 h. The data are presented as the relative activity of NEP alone.

[2] = target: Recombinant rat neuroligin-1 (NL1), soluble extracellular domain (rat) (UniProt Q62765); assay: SPR; Biacore 2000; about 2000 RU of NL1 immobilised on a CM4 chip by amine coupling; 25 °C; HBS-P (10 mM HEPES pH 7.4, 150 mM NaCl, 0.005% P20) with 3 mM CaCl2; 20 μl/min; 1:1 Langmuir model; apparent KD = kd/ka
[3] = target: Biotinylated amyloid-β peptide 1-40 (Aβ1-40); assay: ELISA; competitive ELISA: NL1 (3.125 nM) coated on the plate; biotinylated Aβ1-40 (400 nM; Aβ40-1 as negative control) premixed 30 min with serially diluted NL1 or NL1-derived peptides; 4 h at room temperature; streptavidin-HRP; IC50 interpreted as KD

T3 sequence (P05067 672-711): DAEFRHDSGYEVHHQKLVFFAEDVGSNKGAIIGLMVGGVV
T1 sequence (P05067 672-713): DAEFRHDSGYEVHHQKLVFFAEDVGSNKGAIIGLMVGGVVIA
T4 sequence (P08473 whole entry): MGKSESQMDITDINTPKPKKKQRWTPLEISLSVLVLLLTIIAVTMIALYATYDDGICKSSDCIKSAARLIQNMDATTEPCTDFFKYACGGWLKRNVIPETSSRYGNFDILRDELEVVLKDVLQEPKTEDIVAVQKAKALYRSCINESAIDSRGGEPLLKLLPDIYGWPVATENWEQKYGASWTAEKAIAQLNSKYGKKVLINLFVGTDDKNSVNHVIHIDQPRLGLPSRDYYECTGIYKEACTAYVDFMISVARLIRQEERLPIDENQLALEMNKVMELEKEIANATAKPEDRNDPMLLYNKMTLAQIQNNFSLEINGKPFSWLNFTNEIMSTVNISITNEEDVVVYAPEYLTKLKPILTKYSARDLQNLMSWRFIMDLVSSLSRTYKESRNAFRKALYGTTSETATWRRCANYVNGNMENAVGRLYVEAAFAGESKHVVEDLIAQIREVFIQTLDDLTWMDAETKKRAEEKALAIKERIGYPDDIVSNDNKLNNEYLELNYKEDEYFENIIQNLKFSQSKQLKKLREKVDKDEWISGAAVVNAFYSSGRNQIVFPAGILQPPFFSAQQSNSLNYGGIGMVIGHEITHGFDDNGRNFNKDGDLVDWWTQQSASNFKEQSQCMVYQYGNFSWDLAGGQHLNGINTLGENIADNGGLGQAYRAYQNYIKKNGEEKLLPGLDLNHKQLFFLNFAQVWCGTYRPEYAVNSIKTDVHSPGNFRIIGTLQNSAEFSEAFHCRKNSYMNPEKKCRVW

CC[C@H](C)[C@H](N)C(=O)N[C@H](C(=O)N[C@H](C(=O)N[C@@H](CC(N)=O)C(=O)N[C@@H](Cc1ccc(O)cc1)C(=O)N[C@@H](CCCNC(=N)N)C(=O)N[C@@H](CC(C)C)C(=O)NCC(=O)NCCCC[C@H](NC(=O)CNC(=O)[C@H](CC(C)C)NC(=O)[C@H](CCCNC(=N)N)NC(=O)[C@H](Cc1ccc(O)cc1)NC(=O)[C@H](CC(N)=O)NC(=O)[C@@H](NC(=O)[C@@H](NC(=O)[C@@H](N)[C@@H](C)CC)[C@@H](C)O)C(C)C)C(=O)NCCCC[C@H](NC(=O)[C@H](CCCCNC(=O)CNC(=O)[C@H](CC(C)C)NC(=O)[C@H](CCCNC(=N)N)NC(=O)[C@H](Cc1ccc(O)cc1)NC(=O)[C@H](CC(N)=O)NC(=O)[C@@H](NC(=O)[C@@H](NC(=O)[C@@H](N)[C@@H](C)CC)[C@@H](C)O)C(C)C)NC(=O)CNC(=O)[C@H](CC(C)C)NC(=O)[C@H](CCCNC(=N)N)NC(=O)[C@H](Cc1ccc(O)cc1)NC(=O)[C@H](CC(N)=O)NC(=O)[C@@H](NC(=O)[C@@H](NC(=O)[C@@H](N)[C@@H](C)CC)[C@@H](C)O)C(C)C)C(N)=O)C(C)C)[C@@H](C)O [NLp2] (I: H-ITVNYRLGKK-NH2 / II: H-ITVNYRLGK / III: H-ITVNYRLG / IV: H-ITVNYRLG; amide I:9-IV:C, I:10-II:C, II:9-III:C; N-terminus and C-terminus assumed)
development of ThT fluorescence (Aβ aggregation) (Aβ1-42): had no effect

O=C(O)CNC(=O)C(CS)Cc1ccccc1 (stereo not shown) [Thiorphan, reference compound]
activity of brain-derived NEP (brain-derived NEP): completely blocked

AENIVDSDDG [NLp4, NL1-derived peptide …]
KD (binding affinities to Aβ1-42, as in the table title) (Aβ1-40): No binding
activity of recombinant NEP [1]: had no effect

AHTKPNRFEA [NLp6, NL1-derived peptide …]
KD (binding affinities to Aβ1-42, as in the table title) (Aβ1-40): No binding

ASDFDFAVSN [NLp5, NL1-derived peptide …]
KD (binding affinities to Aβ1-42, as in the table title) (Aβ1-40): No binding

ASFQPAKYA [NLp3, NL1-derived peptide …]
KD (binding affinities to Aβ1-42, as in the table title) (Aβ1-40): No binding

ATADLHSNFGS [NLp8, NL1-derived peptide …]
KD (binding affinities to Aβ1-42, as in the table title) (Aβ1-40): No binding

Amyloid-β peptide 1-42 (Aβ1-42)
Kd [2]: 72 nM

Recombinant rat neurexin-1β (NX1β) (from UniProt Q63373 47-391) (natural protein)
Kd [2]: 6.64 nM

SGGPKPVMYIHG [NLp1, NL1-derived peptide …]
KD (binding affinities to Aβ1-42, as in the table title) (Aβ1-40): No binding

SVPVTSAFPTAKQDDA [NLp7, NL1-derived peptide …]
KD (binding affinities to Aβ1-42, as in the table title) (Aβ1-40): No binding
development of ThT fluorescence (Aβ aggregation) (Aβ1-42): had no effect
activity of recombinant NEP [1]: had no effect

B1: NLp2, NL1-derived synthetic peptide (tetramer on a lysine backbone) (peptide)
peptide: ITVNYRLG
modifications: also: tetramer: four copies coupled to a lysine backbone
Kd [3]: 676 nM

B2: Neurolide, NL1-derived synthetic peptide (tetramer on a lysine backbone) (peptide)
peptide: SEGNRWSNSTKGLFQRA
modifications: also: tetramer: four copies coupled to a lysine backbone
Kd [3]: 35.3 nM
